ChEMBL document CHEMBL1649432, “Chromosomal integration of the extended-spectrum beta-lactamase gene blaCTX-M-15 in Salmonella enterica serotype Concord isolates from internationally adopted children” (2009)
In brackets after ≈: the same amount, converted by molar mass.

Assays:
Format in all cases: functional, Salmonella enterica subsp. enterica serovar Concord
[1] = Antimicrobial activity against Salmonella enterica serotype concord expressing extended-spectrum beta-lactamase SHV-12 by disc diffusion method
[2] = Antimicrobial activity against Salmonella enterica serotype concord expressing extended-spectrum beta-lactamase CTX-M-15 by disc diffusion method
[3] = Antimicrobial activity against Salmonella enterica serotype concord expressing extended-spectrum beta-lactamase CTX-M-15 by Etest
[4] = Antimicrobial activity against Salmonella enterica serotype concord expressing extended-spectrum beta-lactamase SHV-12 by Etest

MIC [1]	MIC ([2]; Salmonella enterica)	SMILES	MIC [3]	MIC [4]	Activity [2]
8 µg/mL (≈ 16.6 µM)	> 256 µg/mL	CO/N=C(\C(=O)N[C@@H]1C(=O)N2C(C(=O)[O-])=C(C[N+]3(C)CCCC3)CS[C@H]12)c1csc(N)n1 [CEFEPIME]	–	–	–
–	–	CC(C)(O/N=C(\C(=O)N[C@@H]1C(=O)N2C(C(=O)[O-])=C(C[n+]3ccccc3)CS[C@H]12)c1csc(N)n1)C(=O)O [CEFTAZIDIME]	> 256 µg/mL	> 256 µg/mL	–
–	–	CO/N=C(\C(=O)N[C@@H]1C(=O)N2C(C(=O)O)=C(CSc3nc(=O)c(O)nn3C)CS[C@H]12)c1csc(N)n1 [CEFTRIAXONE]	> 256 µg/mL	64 µg/mL (≈ 115 µM)	–
–	–	O=C(O)c1cn(C2CC2)c2cc(N3CCNCC3)c(F)cc2c1=O [CIPROFLOXACIN]	–	–	0.25 µg/mL
